Read-outs that look alike come from different tables or passages of the source.
Experiments:
[1] = target: T1, Pim-1 (Homo sapiens, UniProt P11309); experiment: TR-FRET assay, Pim-1 kinase (phosphorylation of Bad Ser112); assay type: biochemical; conditions: TR-FRET; ATP 40 μM; read-out: IC50 Pim1
T1 construct: His6-labelled recombinant full-length human Pim-1, Pim-2 or Pim-3 protein; His6; made in house
In short: (§1)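 Recombinant His6-tagged full-length human Pim-1, Pim-2 or Pim-3 phosphorylates His6-tagged full-length human Bad at 40 μM ATP (apparent KM). Phospho-Ser112 is detected by TR-FRET between Eu-labelled anti-phosphoBad and APC-labelled anti-His6 (665/615 nm ratio); 10-point duplicate series, top typically 30 μM, IC50 from 4-parameter logistic fit.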

[2] = target: T2, Pim-2 (Homo sapiens, UniProt Q9P1W9); experiment: TR-FRET assay, Pim-2 kinase (phosphorylation of Bad Ser112); assay type: biochemical; conditions: TR-FRET; ATP 40 μM; read-out: IC50 Pim2
T2 construct: His6-labelled recombinant full-length human Pim-1, Pim-2 or Pim-3 protein; His6; made in house
In short: as §1

[3] = target: T3, Pim-3 (Homo sapiens, UniProt Q86V86); experiment: TR-FRET assay, Pim-3 kinase (phosphorylation of Bad Ser112); assay type: biochemical; conditions: TR-FRET; ATP 40 μM; read-out: IC50 Pim3
T3 construct: His6-labelled recombinant full-length human Pim-1, Pim-2 or Pim-3 protein; His6; made in house
In short: as §1

[4] = target: PLK1 (Homo sapiens, UniProt P53350); experiment: PLK1 biochemical inhibition
[5] = test system: EOL-1; experiment: Cell viability assay (CellTiter-Blue), EOL-1; assay type: cell-based; conditions: Homo sapiens, EOL1, read-out: EC50 EOL-1 μM (lymphoma)
Excerpt: (§2) The representative compounds of the invention are also screened as regards their effects on cell proliferation and viability using a variety of human tumour cell lines, which are representative of various pathological indications. These cell lines include: • Models of haematological cancers: • TF-1 (acute myelogenic leukaemia; AML M6 at the time of diagnosis); • KG-1 (AML; erythroleukaemia evolving into AML); • KG-1a (AML; sub-clone derived from immature KG-1); • EOL-1 (AML; eosinophilic leukaemia); • PL-21 (AML; M3); • ML-2 (AML; T-NHL evolving into T-ALL evolving into AML M4); • HL-60 (AML, M3); • Kasumi-1 (AML); • GDM-1 (AML); • K-562 (CML—chronic myelogenic leukaemia; blastic crisis); • JURL-MK1 (CML; blastic crisis); • DND-41 (T-ALL—-cell acute lymphoblastic leukaemia); • Jurkat (T-ALL); NALM-6 (B-ALL—B-cell ALL); • CEM (ALL; lymphosarcoma evolving into ALL); • Jeko-1 (B-NHL—B-cell non-Hodgkin lymphoma; mantle-cell lymphoma derived from a variant with large cells as a leukaemic transformation); • WSU-DLCL2 (B-NHL; large B-cell diffuse lymphoma); • RL (B-NHL; undifferentiated diffuse); • OCI-Ly10 (B-NHL); • DoHH-2 (B-NHL); • RPMI-8226 (MM—multiple myeloma); • JVM-2 (B-CLL—B-cell chronic lymphocytic leukaemia); and • JVM-3 (B-CLL) • MV4-11 (AML) • MOLM13 (AML). • Solid tumour models: • HCT-116 (bowel cancer); • HT-29 (bowel cancer); • HC-15 (bowel cancer); • H460 (lung cancer; non-small-cell lung cancer); • A375 (melanoma); • B16F10 (melanoma); • MDA-A1 (breast cancer); • MDA-MB231 (breast cancer); • MDA-MB231 adr (breast cancer); • PANC-1 (pancreatic cancer); and • PC-3 (prostate cancer).
(§3) In order to measure the viability, the tumour cells are incubated in a 96-well or 384-well format for 48, 72 or 96 hours, preferably 72 hours, with a compound of the invention at dilutions of a factor 3 with, in general, nine doses in total, the highest dose being equal to 10 μM or 30 μM. The cell viability is evaluated by adding CellTiter-Blue® (Promega, Madison, Wis., United States) for 4 hours and end-point readings are taken using a SpectraMax Genmini EM (Molecular Devices, Sunnyvale, Calif., United States). The CellTiter-Blue® cell viability assay measures the ability of the cells in culture to reduce resazurin to resorufin, the fluorescence signal intensity being directly proportional to the number of live cells.

[6] = test system: MV4-11; experiment: Cell viability assay (CellTiter-Blue), MV4-11; assay type: cell-based; conditions: Homo sapiens
Excerpt: as §2, §3

[7] = test system: MOLM-13; experiment: Cell viability assay (CellTiter-Blue), MOLM-13; assay type: cell-based; conditions: Homo sapiens
Excerpt: as §2, §3

[8] = test system: PI3K; experiment: PI3K biochemical inhibition
[9] = EOL-1 cells, cell proliferation/viability
[10] = MV4-11 cells, cell proliferation/viability, read-out: IC50 MV4-11 μM (myeloma)
[11] = MOLM-13 cells, cell proliferation/viability, read-out: IC50 MOLM-13 μM (myeloma)

PLK1, sequence (P53350 whole entry, species assumed): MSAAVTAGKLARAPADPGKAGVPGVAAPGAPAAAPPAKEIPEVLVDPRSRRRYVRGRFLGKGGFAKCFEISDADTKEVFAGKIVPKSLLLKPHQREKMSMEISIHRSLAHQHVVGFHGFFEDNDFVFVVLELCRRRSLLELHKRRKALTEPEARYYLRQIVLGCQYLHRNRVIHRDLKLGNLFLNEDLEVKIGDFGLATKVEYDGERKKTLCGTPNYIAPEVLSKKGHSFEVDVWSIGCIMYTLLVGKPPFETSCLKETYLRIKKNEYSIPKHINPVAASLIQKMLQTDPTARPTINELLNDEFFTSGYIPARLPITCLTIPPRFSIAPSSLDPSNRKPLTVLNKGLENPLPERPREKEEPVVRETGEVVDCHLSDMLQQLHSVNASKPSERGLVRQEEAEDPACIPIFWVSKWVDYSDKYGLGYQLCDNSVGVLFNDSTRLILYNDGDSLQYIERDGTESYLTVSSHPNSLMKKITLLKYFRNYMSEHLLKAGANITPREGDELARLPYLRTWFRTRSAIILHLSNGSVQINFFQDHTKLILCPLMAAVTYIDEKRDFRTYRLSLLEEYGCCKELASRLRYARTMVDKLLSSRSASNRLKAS
T1 sequence (P11309 whole entry): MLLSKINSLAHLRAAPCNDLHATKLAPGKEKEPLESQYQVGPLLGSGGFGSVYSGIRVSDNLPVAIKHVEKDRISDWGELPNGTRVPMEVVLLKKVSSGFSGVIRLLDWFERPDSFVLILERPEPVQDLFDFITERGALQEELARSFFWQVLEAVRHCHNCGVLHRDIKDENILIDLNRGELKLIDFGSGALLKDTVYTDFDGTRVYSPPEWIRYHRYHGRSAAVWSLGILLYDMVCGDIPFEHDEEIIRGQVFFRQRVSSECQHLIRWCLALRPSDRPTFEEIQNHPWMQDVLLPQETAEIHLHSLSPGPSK
T2 sequence (Q9P1W9 whole entry): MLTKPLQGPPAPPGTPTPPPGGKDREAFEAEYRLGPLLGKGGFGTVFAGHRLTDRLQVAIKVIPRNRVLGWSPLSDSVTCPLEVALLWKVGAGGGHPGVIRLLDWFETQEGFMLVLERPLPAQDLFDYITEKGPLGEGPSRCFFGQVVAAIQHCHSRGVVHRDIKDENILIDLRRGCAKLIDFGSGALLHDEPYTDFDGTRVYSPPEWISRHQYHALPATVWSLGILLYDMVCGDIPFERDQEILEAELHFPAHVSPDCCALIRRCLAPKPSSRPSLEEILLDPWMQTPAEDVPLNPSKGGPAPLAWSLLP

| IC50 [1] | IC50 [2] | IC50 [3] | IC50 [4] | IC50 [6, 10] | IC50 [7, 11] | IC50 [8] | Structure (SMILES) | EC50 [5, 9] | EC50 [5] | IC50 ([6]; MV4-11, read-out: IC50 MV4-11 μM (myeloma)) | IC50 ([7]; MOLM-13, read-out: IC50 MOLM-13 μM (myeloma)) |
| --- | --- | --- | --- | --- | --- | --- | --- | --- | --- | --- | --- |
| 1 to 100 nM | 1000 to 5000 nM | 100 to 1000 nM | – | – | – | 100 to 1000 nM | Oc1cccc(-c2c(F)cnc3[nH]c4cnc(-c5cccnc5)cc4c23)c1 [Example 26] | – | – | – | – |
| 1 to 100 nM | > 5000 nM | 100 to 1000 nM | – | – | – | > 5000 nM | Fc1cnc2[nH]c3cnc(-c4cccnc4)cc3c2c1/C=C/C1CC1 [Example 27, 4-[(E)-2-cyclopropyl-ethenyl]-3-fluoro-6-(pyrid-3-yl)-9H-pyrrolo-[2,3-b:5,4-c′]dipyridine] | – | – | – | – |
| 1 to 100 nM | 1000 to 5000 nM | 1 to 100 nM | 100 to 1000 nM | – | – | 1000 to 5000 nM | CCN(CC)CCN1CCN(c2c(F)cnc3[nH]c4cnc(-c5cccnc5)cc4c23)CC1 [Example 79, N,N-diethyl-2-{4-[3-fluoro-6-(pyrid-3-yl)-9H-pyrrolo[2,3-b:5,4-c′]dipyrid-4-yl]-piperazin-1-yl}-ethanamine] | – | – | – | – |
| 1 to 100 nM | 100 to 1000 nM | 1 to 100 nM | 100 to 1000 nM | 100 to 1000 nM | 100 to 1000 nM | – | CN(C)CCOc1ccc(-c2c(F)cnc3[nH]c4cnc(-c5cccnc5)cc4c23)cc1 [Example 96, 2-{4-[3-fluoro-6-(pyrid-3-yl)-9H-pyrrolo[2,3-b:5,4-c′]dipyrid-4-yl]-phenoxy}-N,N-dimethylethanamine] | 1 to 100 nM | – | – | – |
| 1 to 100 nM | 100 to 1000 nM | 1 to 100 nM | 1 to 100 nM | 100 to 1000 nM | 100 to 1000 nM | – | Fc1cnc2[nH]c3cnc(-c4cccnc4)cc3c2c1-c1ccc(OCCN2CCCC2)cc1 [Example 97, 3-fluoro-6-(pyrid-3-yl)-4-{4-[2-(pyrrolidin-1-yl)ethoxy]phenyl}-9H-pyrrolo[2,3-b:5,4-c′]dipyridine] | 100 to 1000 nM | – | – | – |
| 1 to 100 nM | 100 to 1000 nM | 1 to 100 nM | 100 to 1000 nM | 100 to 1000 nM | 100 to 1000 nM | – | CCN(CC)C(=O)c1cccc(-c2cnc3[nH]c4cnc(-c5cccnc5)cc4c3c2)c1 [Example 119, N,N-diethyl-3-[6-(pyrid-3-yl)-9H-pyrrolo[2,3-b:5,4-c′]dipyrid-3-yl]-benzamide] | 1 to 100 nM | – | – | – |

Second part, the compound before the results:

| Structure (SMILES) | IC50 [1] | IC50 [2] | IC50 [3] | IC50 [4] | IC50 [6, 10] | IC50 [7, 11] | IC50 [8] | EC50 [5, 9] | EC50 [5] | IC50 ([6]; MV4-11, read-out: IC50 MV4-11 μM (myeloma)) | IC50 ([7]; MOLM-13, read-out: IC50 MOLM-13 μM (myeloma)) |
| --- | --- | --- | --- | --- | --- | --- | --- | --- | --- | --- | --- |
| COc1cnc2[nH]c3cnc(-c4cccnc4)cc3c2c1 [Example 7, 3-methoxy-6-(pyrid-3-yl)-9H-pyrrolo-[2,3-b:5,4-c′]-dipyridine] | 1 to 100 nM | 100 to 1000 nM | 1 to 100 nM | 100 to 1000 nM | 100 to 1000 nM | 100 to 1000 nM | – | 100 to 1000 nM | – | – | – |
| COc1ccnc2[nH]c3cnc(-c4cccnc4)cc3c12 [Example 8, 4-methoxy-6-(pyrid-3-yl)-9H-pyrrolo-[2,3-b:5,4-c′]-dipyridine] | 1 to 100 nM | 1000 to 5000 nM | 100 to 1000 nM | 100 to 1000 nM | 100 to 1000 nM | 100 to 1000 nM | – | 100 to 1000 nM | – | – | – |
| NS(=O)(=O)c1cccc(-c2c(F)cnc3[nH]c4cnc(-c5cccnc5)cc4c23)c1 [Example 21, 3-[3-Fluoro-6-(pyrid-3-yl)-9H-pyrrolo[2,3-b:5,4-c′]dipyrid-4-yl]-benzenesulfonamide] | 1 to 100 nM | > 5000 nM | 100 to 1000 nM | 1 to 100 nM | – | – | 1000 to 5000 nM | – | – | – | – |
| COc1cc(OC)cc(-c2c(F)cnc3[nH]c4cnc(-c5cccnc5)cc4c23)c1 [Example 23, 4-(3,5-dimethoxy-phenyl)-3-fluoro-6-(pyrid-3-yl)-9H-pyrrolo-[2,3-b:5,4-c′]dipyridine] | 1 to 100 nM | > 5000 nM | 100 to 1000 nM | 1000 to 5000 nM | – | – | > 5000 nM | – | – | – | – |
| O=S(=O)(NC1CC1)c1ccc(-c2c(F)cnc3[nH]c4cnc(-c5cccnc5)cc4c23)cc1 [Example 28, N-cyclopropyl-4-(3-fluoro-6-(pyrid-3-yl)-9H-pyrrolo[2,3-b:5,4-c′]-dipyrid-4-yl]benzene-sulfonamide] | 1 to 100 nM | > 5000 nM | 100 to 1000 nM | 1 to 100 nM | – | – | 1000 to 5000 nM | – | – | – | – |
| Fc1cnc2[nH]c3cnc(-c4cccnc4)cc3c2c1N1CCN(CCCN2CCCCC2)CC1 [Example 86, 3-fluoro-4-{4-[3-(piperid-1-yl)propyl]piperazin-1-yl}-6-(pyrid-3-yl)-9H-pyrrolo-[2,3-b:5,4-c′]-dipyridine] | 1 to 100 nM | 100 to 1000 nM | 1 to 100 nM | 100 to 1000 nM | 100 to 1000 nM | – | > 5000 nM | 100 to 1000 nM | – | – | – |
| CN(C)CCCOc1ccc(-c2c(F)cnc3[nH]c4cnc(-c5cccnc5)cc4c23)cc1 [Example 94, 3-{-4-[3-fluoro-6-(pyrid-3-yl)-9H-pyrrolo[2,3-b:5,4-c′]dipyrid-4-yl]phenoxy}-N,N-dimethylpropan-1-amine] | 1 to 100 nM | 100 to 1000 nM | 1 to 100 nM | 1 to 100 nM | – | – | – | – | 1 to 100 nM | 1 to 100 nM | 100 to 1000 nM |
| CC(COc1ccc(-c2c(F)cnc3[nH]c4cnc(-c5cccnc5)cc4c23)cc1)CN(C)C (stereo not drawn) [Example 98, 3-{4-[3-fluoro-6-(pyrid-3-yl)-9H-pyrrolo[2,3-b:5,4-c′]dipyrid-4-yl]phenoxy}-N,N,2-trimethylpropan-1-amine] | 1 to 100 nM | 1 to 100 nM | 1 to 100 nM | 100 to 1000 nM | 100 to 1000 nM | 100 to 1000 nM | – | 1 to 100 nM | – | – | – |
| CCN(CC)CCOc1ccc(-c2c(F)cnc3[nH]c4cnc(-c5cccnc5)cc4c23)cc1 [Example 100, N,N-diethyl-2-{4-[3-fluoro-6-(pyrid-3-yl)-9H-pyrrolo[2,3-b:5,4-c′]dipyrid-4-yl]-phenoxy}ethanamine] | 1 to 100 nM | 100 to 1000 nM | 1 to 100 nM | 1 to 100 nM | 100 to 1000 nM | 100 to 1000 nM | – | 1 to 100 nM | – | – | – |
| Cc1n[nH]c(C)c1-c1cnc2[nH]c3cnc(-c4cccnc4)cc3c2c1 [Example 120, 3-(3,5-dimethyl-1H-pyrazol-4-yl)-6-(pyrid-3-yl)-9H-pyrrolo[2,3-b:5,4-c′]-dipyridine] | 1 to 100 nM | > 5000 nM | 1 to 100 nM | 100 to 1000 nM | 1 to 100 nM | 100 to 1000 nM | – | 1 to 100 nM | – | – | – |
| CCN(CC)CCn1cc(-c2cnc3[nH]c4cnc(-c5cccnc5)cc4c3c2)cn1 [Example 123, N,N-diethyl-2-{4-[6-(pyrid-3-yl)-9H-pyrrolo-[2,3-b:5,4-c′]-dipyrid-3-yl]-1H-pyrazol-1-yl}-ethanamine] | 1 to 100 nM | 100 to 1000 nM | 1 to 100 nM | 1000 to 5000 nM | 1 to 100 nM | 1 to 100 nM | – | 1 to 100 nM | – | – | – |
| c1cncc(-c2cc3c(cn2)[nH]c2ncc(-c4ccc(N5CCNCC5)cc4)cc23)c1 [Example 130, 3-[4-(piperazin-1-yl)phenyl]-6-(pyrid-3-yl)-9H-pyrrolo[2,3-b:5,4-c′]dipyridine] | 1 to 100 nM | 100 to 1000 nM | 1 to 100 nM | – | 1 to 100 nM | 1 to 100 nM | – | 1 to 100 nM | – | – | – |
